Source: patent US20200385371A1 (Propellon Therapeutics Inc., priority 2017, published 2020)
pEC50, pIC50, pKd: −log10 of the molar value. Where a name gives a salt, the structure may show the parent alone.

Tests used:
[1] = test system: MV4-11 cells; assay: Cell proliferation assay (ATPlite); assay type: cell-based; details: Homo sapiens, 120 h; MV4-11 cells, five days; read-out: GI MV411 EC50
Procedure, shortened: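 Cells seeded at 1,000/well in Alpha-MEM with 10% FBS, treated with compound over a 10-point range (top 10 μM) or DMSO. Grown five days at 37° C, 5% CO2; viability by ATPlite luminescence.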

[2] = molecular target: T1, WDR5 (Homo sapiens, UniProt P61964); assay: Surface Plasmon Resonance (SPR) assay; assay type: binding; parameters: Full length WDR5 with an N-terminal His tag and C-terminal AviTag; His tag (N); made in house; host or cells: E. coli; details: read-out: SPR Kd
Procedure, shortened: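 Full-length biotinylated WDR5 (N-His, C-AviTag, E. coli) captured (~3000 RU) on streptavidin SA chip; Biacore T200. HBS-EP pH 7.4 plus 5% DMSO running buffer, 40 μl/min.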

[3] = molecular target: T1, WDR5; assay: Fluorescence Polarization (FP) binding assay
Procedure, shortened: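 Displacement of fluorescein-labelled H3 (1-15) (30 nM, with 0.3 μM WDR5) or 9-Ala-FAM (20 nM, with 0.05 μM WDR5) in 80 mM sodium phosphate pH 6.5, 20 mM KCl, 0.008% Triton X-100. FP read at 485/528 nm (H3) or 480/540 nm (9-Ala-FAM); Kdisp from hyperbolic fit, mean of quadruplicates.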

pEC50 [1] | pKd [2] | pIC50 [3] | SMILES
7.20 | 9.14 | 7.93 | C[C@H]1CN(c2ncc(-c3c(F)cc(N4CCN(C)[C@@H](C)C4)c(NC(=O)c4ccc(F)cc4C(F)(F)F)c3F)cn2)C[C@H](C)O1 [Example 166, N-(3-(2-((2S,6S)-2,6-dimethylmorpholino)pyrimidin-5-yl)-6-((S)-3,4-dimethylpiperazin-1-yl)-2,4-difluorophenyl)-4-fluoro-2-(trifluoromethyl)benzamide Formic Acid Salt]
6.60 | 8.87 | 7.85 | C[C@H]1CN(c2ncc(-c3c(F)cc(N4CCN(C)[C@@H](C)C4)c(NC(=O)c4cn(C)c(=O)cc4C(F)F)c3F)cn2)C[C@H](C)O1 [Example 160, 4-(Difluoromethyl)-N-(3-(2-((2S,6S)-2,6-dimethylmorpholino)pyrimidin-5-yl)-6-((S)-3,4-dimethylpiperazin-1-yl)-2,4-difluorophenyl)-1-methyl-6-oxo-1,6-dihydropyridine-3-carboxamide]
7.12 | 8.99 | 7.71 | COc1cnc(N2CC=C(c3c(F)cc(N4CCN(C)[C@@H](C)C4)c(NC(=O)c4c[nH]c(=O)cc4C(F)(F)F)c3F)CC2)nc1 [Example 53, (S)—N-(6-(3,4-dimethylpiperazin-1-yl)-2,4-difluoro-3-(1-(5-methoxypyrimidin-2-yl)-1,2,3,6-tetrahydropyridin-4-yl)phenyl)-6-oxo-4-(trifluoromethyl)-1,6-dihydropyridine-3-carboxamide]
7.23 | 8.58 | 7.91 | CC(C)OC(=O)N1CC=C(c2c(F)cc(N3C[C@@H](C)N(C)[C@@H](C)C3)c(NC(=O)c3c[nH]c(=O)cc3C(F)(F)F)c2F)CC1 [Example 133]
6.91 | 8.88 | 7.82 | C[C@@H]1CN(c2cc(F)c(-c3ccc(N4CCOCC4)c(F)c3)c(F)c2NC(=O)c2c[nH]c(=O)cc2C(F)(F)F)C[C@H](C)N1C [Example 9, 6-Oxo-N-(2,3′,6-trifluoro-4′-morpholino-4-((3S,5R)-3,4,5-trimethylpiperazin-1-yl)-[1,1′-biphenyl]-3-yl)-4-(trifluoromethyl)-1,6-dihydropyridine-3-carboxamide]
7.42 | 8.75 | 7.88 | COc1cc(N2CCC=C(c3c(F)cc(N4C[C@@H](C)N(C)[C@@H](C)C4)c(NC(=O)c4c[nH]c(=O)cc4C(F)(F)F)c3F)C2)ncn1 [Example 142, N-(2,4-difluoro-3-(1-(6-methoxypyrimidin-4-yl)-1,2,5,6-tetrahydropyridin-3-yl)-6-((3S,5R)-3,4,5-trimethylpiperazin-1-yl)phenyl)-6-oxo-4-(trifluoromethyl)-1,6-dihydropyridine-3-carboxamide]
7.17 | 8.64 | 7.90 | C[C@@H]1CN(c2cc(F)c(C3=CCN(C(=O)OC4CC(F)(F)C4)CC3)c(F)c2NC(=O)c2c[nH]c(=O)cc2C(F)(F)F)C[C@H](C)N1C [Example 135, 3,3-Difluorocyclobutyl 4-(2,6-difluoro-3-(6-oxo-4-(trifluoromethyl)-1,6-dihydropyridine-3-carboxamido)-4-((3S,5R)-3,4,5-trimethylpiperazin-1-yl)phenyl)-5,6-dihydropyridine-1(2H)-carboxylate]
6.95 | 8.96 | 7.77 | COc1cnc(N2CC=C(c3c(F)cc(N4CCN(C)[C@@H](C)C4)c(NC(=O)c4c[nH]c(=O)cc4C(F)(F)F)c3F)C2)nc1 [Example 51, (S)—N-(6-(3,4-dimethylpiperazin-1-yl)-2,4-difluoro-3-(1-(5-methoxypyrimidin-2-yl)-2,5-dihydro-1H-pyrrol-3-yl)phenyl)-6-oxo-4-(trifluoromethyl)-1,6-dihydropyridine-3-carboxamide]
7.12 | 8.88 | 7.92 | C[C@H]1CN(c2cc(F)c(C3=CCN(C(=O)OC4CC(F)(F)C4)C3)c(F)c2NC(=O)c2c[nH]c(=O)cc2C(F)(F)F)CCN1C [Example 45, 3,3-Difluorocyclobutyl (S)-3-(4-(3,4-dimethylpiperazin-1-yl)-2,6-difluoro-3-(6-oxo-4-(trifluoromethyl)-1,6-dihydropyridine-3-carboxamido)phenyl)-2,5-dihydro-1H-pyrrole-1-carboxylate]
6.55 | 9.34 | 7.70 | COc1cnc(N2CCC=C(c3c(F)cc(N4CCN(C)[C@@H](C)C4)c(NC(=O)c4c[nH]c(=O)cc4C(F)(F)F)c3F)C2)nc1 [Example 52, (S)—N-(6-(3,4-dimethylpiperazin-1-yl)-2,4-difluoro-3-(1-(5-methoxypyrimidin-2-yl)-1,2,5,6-tetrahydropyridin-3-yl)phenyl)-6-oxo-4-(trifluoromethyl)-1,6-dihydropyridine-3-carboxamide]
7.61 | 8.87 | 7.64 | C[C@H]1CN(c2ccc(-c3c(F)cc(N4CCN(C)[C@@H](C)C4)c(NC(=O)c4c[nH]c(=O)cc4C(F)F)c3F)cn2)CCO1 [Example 183, 4-(Difluoromethyl)-N-(6-((S)-3,4-dimethylpiperazin-1-yl)-2,4-difluoro-3-(6-((S)-2-methylmorpholino)pyridin-3-yl)phenyl)-6-oxo-1,6-dihydropyridine-3-carboxamide]
7.38 | 8.94 | 7.83 | C[C@@H]1CN(c2cc(F)c(C3=CCN(C(=O)OC4CC(F)(F)C4)C3)c(F)c2NC(=O)c2c[nH]c(=O)cc2C(F)(F)F)C[C@H](C)N1C [Example 136, 3,3-Difluorocyclobutyl 3-(2,6-difluoro-3-(6-oxo-4-(trifluoromethyl)-1,6-dihydropyridine-3-carboxamido)-4-((3S,5R)-3,4,5-trimethylpiperazin-1-yl)phenyl)-2,5-dihydro-1H-pyrrole-1-carboxylate]
6.86 | 9.11 | 7.87 | C[C@H]1CN(c2cc(F)c(C3=CCN(c4ncc(C#N)s4)CC3)c(F)c2NC(=O)c2c[nH]c(=O)cc2C(F)F)CCN1C [Example 97, (S)—N-(3-(1-(5-cyanothiazol-2-yl)-1,2,3,6-tetrahydropyridin-4-yl)-6-(3,4-dimethylpiperazin-1-yl)-2,4-difluorophenyl)-4-(difluoromethyl)-6-oxo-1,6-dihydropyridine-3-carboxamide]
7.07 | 8.70 | 7.83 | C[C@H]1CN(c2cc(F)c(C3=CCCN(c4ccnc(C#N)n4)C3)c(F)c2NC(=O)c2c[nH]c(=O)cc2C(F)F)CCN1C [Example 113, (S)—N-(3-(1-(2-cyanopyrimidin-4-yl)-1,2,5,6-tetrahydropyridin-3-yl)-6-(3,4-dimethylpiperazin-1-yl)-2,4-difluorophenyl)-4-(difluoromethyl)-6-oxo-1,6-dihydropyridine-3-carboxamide]
7.42 | 8.81 | 7.80 | C[C@H]1CN(c2cc(F)c(C3=CCN(c4ncc(F)cn4)C3)c(F)c2NC(=O)c2c[nH]c(=O)cc2C(F)F)CCN1C [Example 91, (S)-4-(difluoromethyl)-N-(6-(3,4-dimethylpiperazin-1-yl)-2,4-difluoro-3-(1-(5-fluoropyrimidin-2-yl)-2,5-dihydro-1H-pyrrol-3-yl)phenyl)-6-oxo-1,6-dihydropyridine-3-carboxamide]
